Test system: grass carp pituitary cells
Assay: Receptor antagonist / pathway inhibitor co-treatment on HK2-induced mRNA expression in grass carp pituitary cells
Type: cell-based, grass carp (Ctenopharyngodon idellus)
Settings: 24 h co-treatment
Protocol: In this experiment, a pharmacological approach was used to clarify the receptor specificity for SLα and PRL regulation by HK2. Pituitary cells were incubated for 24 h with grass carp HK2 (1 μM) with simultaneous treatment of the NK1R antagonist Rolaptiant (10 μM) or NK3R antagonist SB222200 (10 μM), respectively.
Figure 7 The receptor specificity and signal transduction for PRL and SLα regulation by HK2 in grass carp pituitary cells. (A) Effects of NKR subtype-specific antagonists on HK2-induced PRL and SLα mRNA expression. Pituitary cells were challenged for 24 h with grass carp HK2 (1 μM) in the presence or absence of the NK1R antagonist Rolaptiant (10 μM) or NK3R antagonist SB22200 (10 μM), respectively. (B) Effects of 24-h co-treatment with AC inhibitor MDL12330A (10 μM) or PKA inhibitor H89 (10 μM) on HK2-induced PRL and SLα mRNA expression. (C) Effects of 24-h co-treatment with PLC inhibitor U73122, PKC inhibitor GF109203X (10 μM), or IP3 receptor blocker 2-APB (10 μM) on HK2-induced PRL and SLα mRNA expression. (D) Effects of 24-h co-treatment with the VSCC inhibitor nifedipine (10 μM), CaM antagonist calmidazolium (1 μM) or CaMK-II blocker KN62 (10 μM) on HK2-induced PRL and SLα mRNA expression. After drug treatment, the total RNA of the cells was extracted by the Trizol method, and the expression of various genes was detected by RT-PCR. Data presented were expressed as mean ± SEM, and the differences between groups were significant at p-value < 0.05 by labeling diverse letters.
Figure 8 The receptor specificity and signal transduction for CART2, NMB1, and UTS1 regulation by HK2 in grass carp pituitary cells. (A) The pituitary cells were treated for 24 h with grass carp HK2 (1 μM) in the presence or absence of NK1R antagonist Rolaptiant (10 μM) or NK3R antagonist SB222200 (10 μM). (B) Effects of 24-h co-treatment with an AC inhibitor MDL12330A (10 μM) or PKA inhibitor H89 (10 μM) on HK2-induced CART2, UTS1, or NMB1 mRNA expression. (C) Effects of 24h co-treatment with a PLC inhibitor U73122, PKC inhibitor GF109203X (10 μM), or IP3 receptor blocker 2-APB (10 μM) on HK2-induced CART2, UTS1 or NMB1 mRNA expression. (D) Effects of 24-h co-treatment with the VSCC inhibitor nifedipine (10 μM), CaM antagonist calmidazolium (1 μM), or CaMK-II blocker KN62 (10 μM) on HK2-induced CART2, UTS1 or NMB1 mRNA expression.

Structure (SMILES)	effect on HK2-induced CART2 mRNA expression (inhibitor 10 μM with HK2 1 μM)	effect on HK2-induced NMB1 mRNA expression (inhibitor 10 μM with HK2 1 μM)	effect on HK2-induced PRL mRNA expression (inhibitor 10 μM with HK2 1 μM)	effect on HK2-induced SLα mRNA expression (inhibitor 10 μM with HK2 1 μM)	effect on HK2-induced UTS1 mRNA expression (inhibitor 10 μM with HK2 1 μM)	effect on HK2-induced CART2 mRNA expression (inhibitor 1 μM with HK2 1 μM)	effect on HK2-induced NMB1 mRNA expression (inhibitor 1 μM with HK2 1 μM)	effect on HK2-induced PRL mRNA expression (inhibitor 1 μM with HK2 1 μM)	effect on HK2-induced SLα mRNA expression (inhibitor 1 μM with HK2 1 μM)	effect on HK2-induced UTS1 mRNA expression (inhibitor 1 μM with HK2 1 μM)
NCCOB(c1ccccc1)c1ccccc1 [2-APB]	effective in blocking	effective in blocking	totally abolished	totally abolished	effective in blocking					
CN(C)CCCn1cc(C2=C(c3c[nH]c4ccccc34)C(=O)NC2=O)c2ccccc21 [GF109203X]	effective in blocking	effective in blocking	totally abolished	totally abolished	effective in blocking					
O=S(=O)(NCCNC/C=C/c1ccc(Br)cc1)c1cccc2cnccc12 [H89]	abolished	abolished	effective in blocking	effective in blocking	abolished					
CN([C@@H](Cc1ccc(OS(=O)(=O)c2cccc3cnccc23)cc1)C(=O)N1CCN(c2ccccc2)CC1)S(=O)(=O)c1cccc2cnccc12 [KN62]	suppressed/totally abolished	suppressed/totally abolished	suppressed or totally abolished	suppressed or totally abolished	suppressed/totally abolished					
Cl.c1ccc(C2CCCC2NC2=NCCCCCCCCCCC2)cc1 (stereo not drawn) [MDL12330A]	abolished	abolished	effective in blocking	effective in blocking	abolished					
C[C@@H](OC[C@@]1(c2ccccc2)CC[C@]2(CCC(=O)N2)CN1)c1cc(C(F)(F)F)cc(C(F)(F)F)c1 [Rolaptiant]		not with the NK1R antagonist Rolaptiant	could not be totally abolished	only partially block						
CC[C@H](NC(=O)c1c(C)c(-c2ccccc2)nc2ccccc12)c1ccccc1 [SB222200]	totally abolished	totally abolished	could not be totally abolished	totally blocked	totally abolished					
COc1ccc2c(c1)CC[C@@H]1[C@@H]2CC[C@]2(C)[C@@H](NCCCCCCN3C(=O)C=CC3=O)CC[C@@H]12 [U73122]	effective in blocking	effective in blocking	totally abolished	totally abolished	effective in blocking					
Clc1ccc(C(c2ccc(Cl)cc2)n2cc[n+](CC(OCc3ccc(Cl)cc3Cl)c3ccc(Cl)cc3Cl)c2)cc1 (stereo not drawn) [calmidazolium]						suppressed/totally abolished	suppressed/totally abolished	suppressed or totally abolished	suppressed or totally abolished	suppressed/totally abolished
COC(=O)C1=C(C)NC(C)=C(C(=O)OC)C1c1ccccc1[N+](=O)[O-] [nifedipine]	suppressed/totally abolished	suppressed/totally abolished	suppressed or totally abolished	suppressed or totally abolished	suppressed/totally abolished					

Source: article PMC8657723, “Novel Pituitary Actions of TAC4 Gene Products in Teleost” (International Journal of Molecular Sciences, 2021)
